Reference: patent publication US20200245620A1 (priority 2018, published 2020)
In brackets after ≈: the same amount, converted by molar mass.

Tested on: Fusarium graminearum
Test: microbe, parasite or virus in culture
Assay type: cell-based
Conditions: for EC50: Fusarium graminearum

Row | Structure (SMILES) | EC50 (F.g carbendazim-resistant strains) [µg/mL] | EC50 (F.g phenamacril-resistant strains) [µg/mL] | inhibitory activity on the growth in vitro (sensitive and fungicide-resistant strains, alone or mixed with ipconazole)
1 | CC(C)C1CCC(Cc2ccc(Cl)cc2)C1(O)Cn1cncn1 (stereo not drawn) [Ipconazole] | 0.946 (≈ 2.83 µM) | 0.101 (≈ 0.303 µM) | 
2 | OCC1=C[C@H](N[C@H]2C[C@H](CO)[C@@H](O[C@@H]3O[C@H](CO)[C@@H](O)[C@H](O)[C@H]3O)[C@H](O)[C@H]2O)[C@H](O)[C@@H](O)[C@@H]1O [Jinggangmycin] |  |  | almost does not have inhibitory activity
